Results published in ChEMBL document CHEMBL3611995, “Chalcone scaffolds as anti-infective agents: structural and molecular target perspectives” (Eur J Med Chem, 2015).
In brackets after ≈: the same amount, converted by molar mass. Each block holds one molecule with its values, some of them ahead of it.

How the values were obtained:
Trichophyton rubrum [1] = experiment: Antimicrobial activity against Trichophyton rubrum with deltaTruMDR2 mutation; format: functional
[2] = Inhibition of Trichophyton rubrum FAS
[3] = Inhibition of Saccharomyces cerevisiae chitin synthase-1
[4] = Inhibition of Saccharomyces cerevisiae beta-1,3-glucan synthase
Trichophyton rubrum [5] = experiment: Antimicrobial activity against wild type Trichophyton rubrum MYA3108; format: functional
Plasmodium falciparum [6] = experiment: Anti-parasitic activity against chloroquine-susceptible Plasmodium falciparum 3D7 assessed as reduction in parasite maturation at 50 ug/ml; format: functional
Plasmodium falciparum [7] = experiment: Inhibition of Plasmodium falciparum GST; details: concentration not given here
[8] = Inhibition of Trypanosoma cruzi trans-sialidase
[9] = molecular target: Plasmepsin II (Plasmodium falciparum) (UniProt P46925); experiment: (§1) Inhibition of Plasmodium falciparum plasmepsin 2; details: concentration not given here
Plasmepsin II (Plasmodium falciparum), sequence (P46925 125-453 limits assumed): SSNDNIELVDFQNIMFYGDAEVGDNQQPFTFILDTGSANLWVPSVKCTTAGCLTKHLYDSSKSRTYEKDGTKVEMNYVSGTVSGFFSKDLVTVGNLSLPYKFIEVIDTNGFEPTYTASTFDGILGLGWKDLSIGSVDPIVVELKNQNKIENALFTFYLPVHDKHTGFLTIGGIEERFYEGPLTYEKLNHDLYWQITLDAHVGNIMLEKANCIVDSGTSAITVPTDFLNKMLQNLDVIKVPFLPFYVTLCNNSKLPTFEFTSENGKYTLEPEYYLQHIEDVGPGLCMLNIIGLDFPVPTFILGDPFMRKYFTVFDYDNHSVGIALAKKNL

Plasmodium falciparum [10] = experiment: Anti-parasitic activity against chloroquine-susceptible Plasmodium falciparum 3D7 assessed as reduction in parasite maturation; format: functional
Trichophyton rubrum [11] = experiment: Antimicrobial activity against Trichophyton rubrum clinical isolates; format: functional
Trichophyton rubrum [12] = experiment: Antimicrobial activity against Trichophyton rubrum; format: functional
Plasmodium falciparum [13] = experiment: Anti-parasitic activity against chloroquine-resistant Plasmodium falciparum W2; format: functional, organism-based
Plasmodium falciparum [14] = experiment: Anti-parasitic activity against chloroquine-susceptible Plasmodium falciparum D6; format: functional, organism-based
[15] = Inhibition of beta-hematin formation; format: physicochemical
Plasmepsin II = Plasmepsin II (Plasmodium falciparum, UniProt P46925); experiment: as §1
Plasmepsin II, sequence (P46925 whole entry): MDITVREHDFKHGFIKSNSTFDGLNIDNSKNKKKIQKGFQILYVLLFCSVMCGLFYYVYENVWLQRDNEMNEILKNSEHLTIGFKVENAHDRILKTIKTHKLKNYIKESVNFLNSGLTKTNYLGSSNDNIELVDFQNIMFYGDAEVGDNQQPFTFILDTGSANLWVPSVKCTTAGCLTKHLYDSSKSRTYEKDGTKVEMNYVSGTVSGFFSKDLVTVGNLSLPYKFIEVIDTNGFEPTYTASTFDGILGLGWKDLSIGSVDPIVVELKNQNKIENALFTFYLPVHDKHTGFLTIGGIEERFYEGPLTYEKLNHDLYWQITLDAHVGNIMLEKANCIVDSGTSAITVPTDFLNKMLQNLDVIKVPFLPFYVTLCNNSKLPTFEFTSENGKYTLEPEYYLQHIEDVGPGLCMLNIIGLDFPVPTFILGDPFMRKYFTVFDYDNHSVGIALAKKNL

Leishmania donovani [16] = experiment: Anti-leishmanial activity against Leishmania donovani infected in hamsters assessed as reduction in parasite load in spleen at 20 mg/kg/day, ip for 6 consecutive days; format: functional
[17] = Inhibition of Plasmodium falciparum Cytochrome b-c1 complex
Leishmania donovani [18] = experiment: Anti-leishmanial activity against Leishmania donovani infected in hamsters assessed as reduction in parasite load in liver at 5 to 150 mg/kg/day, po for 6 consecutive days; format: functional
Leishmania donovani [19] = experiment: Anti-leishmanial activity against Leishmania donovani infected in hamsters assessed as reduction in parasite load in spleen at 5 to 150 mg/kg/day, po for 6 consecutive days; format: functional
Leishmania donovani [20] = experiment: Anti-leishmanial activity against Leishmania donovani infected in hamsters assessed as reduction in parasite load in liver at 20 mg/kg/day, ip for 6 consecutive days; format: functional
[21] = Inhibition of Plasmodium falciparum succinate-ubiquinone oxidoreductase
[22] = Inhibition of Plasmodium falciparum falcipain
Plasmodium falciparum [23] = experiment: Anti-parasitic activity against Plasmodium falciparum; format: functional
[24] = Inhibition of new permeation pathway in erythrocytes (unknown origin) at 20 uM by sorbitol-induced hemolysis assay; format: functional, cell-based; details: Erythrocyte
Plasmodium falciparum [25] = experiment: Anti-parasitic activity against Plasmodium falciparum assessed as inhibition of parasite development from ring to schizont stage; format: functional
Leishmania major = experiment: Anti-leishmanial activity against Leishmania major; format: functional, organism-based
Enterovirus = experiment: Antiviral activity against Rhinovirus infected in human HeLa cells; format: functional, organism-based
[26] = Cytotoxicity against human HeLa cells; format: cell-based
[27] = Selectivity index, ratio of cytotoxicity for human HeLa cells to IC50 for anti-parasitic activity against chloroquine-resistant Plasmodium falciparum W2; format: toxicity, cell-based; details: read-out: Selectivity Index
Leishmania amazonensis [28] = experiment: Anti-leishmanial activity against Leishmania amazonensis promastigotes; format: functional; details: read-out: ED50
Leishmania amazonensis [29] = experiment: Anti-leishmanial activity against Leishmania amazonensis intracellular amastigotes; format: functional; details: read-out: ED50
[30] = Inhibition of Trypanosoma brucei trypanopain

SMILES: O=C(/C=C/c1ccccc1)c1ccccc1 [CHALCONE]
MIC (Trichophyton rubrum [1]): 1.9 µg/mL (≈ 9.12 µM)
IC50 [2]: 68.23 µg/mL (≈ 328 µM)
IC50 [3]: 0.02 µg/mL (≈ 0.096 µM)
IC50 [4]: 0.14 µg/mL (≈ 0.672 µM)
MIC (Trichophyton rubrum [5]): 7.5 µg/mL (≈ 36 µM)

SMILES: Cc1ccc(S(=O)(=O)Nc2cccc(C(=O)/C=C/c3ccc(O)c(O)c3)c2)cc1
IC50 [8]: 2.5 µM

SMILES: O=C(/C=C/c1ccc(Cl)cc1)c1ccc(N2CCCCC2)cc1
inhibition (Plasmodium falciparum [7]): 84%

SMILES: COc1cc(/C=C/C(=O)c2ccc(NC(=O)Nc3cccc(C(=O)/C=C/c4cc(OC)c(OC)c(OC)c4)c3)cc2)cc(OC)c1OC
inhibition [9]: 87%

SMILES: O=C(/C=C\c1ccnc2ccccc12)c1cc(Cl)ccc1Cl
IC50 (Plasmodium falciparum [13]): 0.2 µM
IC50 (Plasmodium falciparum [14]): 0.2 µM

SMILES: Cc1ccc(S(=O)(=O)Nc2ccc(C(=O)/C=C/c3ccc(O)c(O)c3)cc2)cc1
IC50 [8]: 0.9 µM

SMILES: O=C(/C=C/c1cccnc1)c1ccc(NS(=O)(=O)c2cc(Cl)ccc2Cl)cc1
IC50 [15]: 0.5 µM

SMILES: COc1cc2c(cc1/C=C/C(=O)c1ccccc1)[C@H]1CC[C@]3(C)[C@@H](Oc4cc(OC)c(OC)c(OC)c4)CC[C@H]3[C@@H]1CC2
GI50 (Plasmodium falciparum [23]): < 5 µM
inhibition [24]: > 70%
MIC (Plasmodium falciparum [25]): 2.07 µM (≈ 1.21 µg/mL)

SMILES: O=C(/C=C/c1cnc2ccccc2c1)c1cc(Cl)ccc1Cl
IC50 (Plasmodium falciparum [13]): 0.2 µM
IC50 (Plasmodium falciparum [14]): 0.2 µM

SMILES: COc1ccc(/C=C/C(=O)c2ccccc2)cc1S(=O)(=O)N1CCOCC1
selectivity ratio [27]: 9

SMILES: O=C(/C=C/c1cc2ccccc2nc1Cl)c1ccc(Cl)c(Cl)c1Cl
IC50 [30]: 0.24 µM

The next lines start with results.

MIC (Plasmodium falciparum [6]): 50 µg/mL (≈ 111 µM)
SMILES: Cc1cccc(C(=O)/C=C(\I)c2cc3ccccc3nc2Cl)c1O

inhibition (Plasmodium falciparum [7]): 84%
SMILES: COc1ccc(/C=C/C(=O)c2ccc(-n3nnc4ccccc43)cc2)cc1

MIC (Plasmodium falciparum [10]): 10 µg/mL (≈ 21.4 µM)
SMILES: CCOc1ccc2nc(Cl)c(/C=C/C(=O)c3cc(Br)cc(Cl)c3O)cc2c1

MIC50 (Trichophyton rubrum [11]): 12.5 µg/mL (≈ 39.2 µM)
MIC90 (Trichophyton rubrum [11]): 25 µg/mL (≈ 78.4 µM)
MIC (Trichophyton rubrum [12]): 12.5 µg/mL (≈ 39.2 µM)
SMILES: COc1cc(O)c(C(=O)/C=C/c2ccccc2Cl)c(OC)c1

MIC (Plasmodium falciparum [10]): 10 µg/mL (≈ 23.6 µM)
SMILES: O=C(/C=C/c1cc2ccccc2nc1Cl)c1cc(Br)cc(Cl)c1O

IC50 [15]: 0.48 µM
SMILES: COc1ccc(/C=C/C(=O)c2ccc(NS(=O)(=O)c3cc(Cl)ccc3Cl)cc2)c(OC)c1OC

IC50 (Plasmepsin II): 6 µM
SMILES: COc1ccc(C(=O)/C=C/c2ccc(F)cc2F)c(OC)c1

inhibition (Plasmodium falciparum [7]): 84%
SMILES: COc1ccc(/C=C/C(=O)c2ccc(N3CCCC3)cc2)cc1

IC50 [17]: 10.8 µM
IC50 [21]: ≥ 100 µM
SMILES: C=CC(C)(C)c1cc(/C=C/C(=O)c2ccc(O)cc2)c(OC)cc1O [LICOAGROCHACONE A]
inhibition in vivo at 20 mg/kg/day (Leishmania donovani [16]): > 96%
inhibition (INH) (Leishmania donovani [18]): >65%
inhibition (INH) (Leishmania donovani [19]): >65%
inhibition in vivo at 20 mg/kg/day (Leishmania donovani [20]): > 96%

IC50 [22]: 19 µM
SMILES: COc1cc2cc(/C=C/C(=O)c3ccc(Cl)cc3Cl)cnc2cc1OC

IC50 (Leishmania major): 4.54 µM
SMILES: COc1ccc(/C=C/C(=O)c2ccccc2O)c(OC)c1

IC50 (Plasmepsin II): 6 µM
SMILES: COc1ccc(C(=O)/C=C/c2ccc(C(F)(F)F)cc2)c(OC)c1

IC50 (Enterovirus): 0.03 µg/mL (≈ 0.0914 µM)
SMILES: CCOc1cc(O)c(C(=O)/C=C/c2ccc(OC)cc2)c(OC)c1
CC50 [26]: 30 µg/mL (≈ 91.4 µM)

EC50 (Leishmania amazonensis [28]): 0.5 µg/mL (≈ 1.85 µM)
EC50 (Leishmania amazonensis [29]): 24 µg/mL (≈ 88.8 µM)
SMILES: COc1cc(O)c(C(=O)/C=C/c2ccccc2)c(O)c1

IC50 (Leishmania major): 4 µM
SMILES: O=C(/C=C/c1ccc(O)cc1)c1ccccc1 [4-HYDROXYCHALCONE]
